Laboratory results published in ChEMBL document CHEMBL3627684, “Discovery of spirocyclic-diamine inhibitors of mammalian acetyl CoA-carboxylase” (Bioorg Med Chem Lett, 2015).

How the values were obtained:
Acetyl-CoA carboxylase 1 = Acetyl-CoA carboxylase 1 (Rattus norvegicus, UniProt P11497); experiment: Inhibition of rat liver ACC1 preincubated for 10 mins followed by acetyl-CoA/KHCO3/[14C]-NaHCO3/ATP addition measured after 20 mins by liquid scintillation counting analysis
[1] = Intrinsic clearance in human liver microsomes
Acetyl-CoA carboxylase 2 = Acetyl-CoA carboxylase 2 (Homo sapiens, UniProt O00763); experiment: Inhibition of recombinant human ACC2 expressed in CHO cells by fluorescence polarization assay
[2] = Plasma clearance in rat; assay type: ADME, organism-based
[3] = Inhibition of acetyl-CoA carboxylase in rat cryopreserved hepatocytes assessed as suppression of de novo lipogenesis; assay type: cell-based; conditions: hepatocyte

Sequence of Acetyl-CoA carboxylase 2 (O00763 whole entry): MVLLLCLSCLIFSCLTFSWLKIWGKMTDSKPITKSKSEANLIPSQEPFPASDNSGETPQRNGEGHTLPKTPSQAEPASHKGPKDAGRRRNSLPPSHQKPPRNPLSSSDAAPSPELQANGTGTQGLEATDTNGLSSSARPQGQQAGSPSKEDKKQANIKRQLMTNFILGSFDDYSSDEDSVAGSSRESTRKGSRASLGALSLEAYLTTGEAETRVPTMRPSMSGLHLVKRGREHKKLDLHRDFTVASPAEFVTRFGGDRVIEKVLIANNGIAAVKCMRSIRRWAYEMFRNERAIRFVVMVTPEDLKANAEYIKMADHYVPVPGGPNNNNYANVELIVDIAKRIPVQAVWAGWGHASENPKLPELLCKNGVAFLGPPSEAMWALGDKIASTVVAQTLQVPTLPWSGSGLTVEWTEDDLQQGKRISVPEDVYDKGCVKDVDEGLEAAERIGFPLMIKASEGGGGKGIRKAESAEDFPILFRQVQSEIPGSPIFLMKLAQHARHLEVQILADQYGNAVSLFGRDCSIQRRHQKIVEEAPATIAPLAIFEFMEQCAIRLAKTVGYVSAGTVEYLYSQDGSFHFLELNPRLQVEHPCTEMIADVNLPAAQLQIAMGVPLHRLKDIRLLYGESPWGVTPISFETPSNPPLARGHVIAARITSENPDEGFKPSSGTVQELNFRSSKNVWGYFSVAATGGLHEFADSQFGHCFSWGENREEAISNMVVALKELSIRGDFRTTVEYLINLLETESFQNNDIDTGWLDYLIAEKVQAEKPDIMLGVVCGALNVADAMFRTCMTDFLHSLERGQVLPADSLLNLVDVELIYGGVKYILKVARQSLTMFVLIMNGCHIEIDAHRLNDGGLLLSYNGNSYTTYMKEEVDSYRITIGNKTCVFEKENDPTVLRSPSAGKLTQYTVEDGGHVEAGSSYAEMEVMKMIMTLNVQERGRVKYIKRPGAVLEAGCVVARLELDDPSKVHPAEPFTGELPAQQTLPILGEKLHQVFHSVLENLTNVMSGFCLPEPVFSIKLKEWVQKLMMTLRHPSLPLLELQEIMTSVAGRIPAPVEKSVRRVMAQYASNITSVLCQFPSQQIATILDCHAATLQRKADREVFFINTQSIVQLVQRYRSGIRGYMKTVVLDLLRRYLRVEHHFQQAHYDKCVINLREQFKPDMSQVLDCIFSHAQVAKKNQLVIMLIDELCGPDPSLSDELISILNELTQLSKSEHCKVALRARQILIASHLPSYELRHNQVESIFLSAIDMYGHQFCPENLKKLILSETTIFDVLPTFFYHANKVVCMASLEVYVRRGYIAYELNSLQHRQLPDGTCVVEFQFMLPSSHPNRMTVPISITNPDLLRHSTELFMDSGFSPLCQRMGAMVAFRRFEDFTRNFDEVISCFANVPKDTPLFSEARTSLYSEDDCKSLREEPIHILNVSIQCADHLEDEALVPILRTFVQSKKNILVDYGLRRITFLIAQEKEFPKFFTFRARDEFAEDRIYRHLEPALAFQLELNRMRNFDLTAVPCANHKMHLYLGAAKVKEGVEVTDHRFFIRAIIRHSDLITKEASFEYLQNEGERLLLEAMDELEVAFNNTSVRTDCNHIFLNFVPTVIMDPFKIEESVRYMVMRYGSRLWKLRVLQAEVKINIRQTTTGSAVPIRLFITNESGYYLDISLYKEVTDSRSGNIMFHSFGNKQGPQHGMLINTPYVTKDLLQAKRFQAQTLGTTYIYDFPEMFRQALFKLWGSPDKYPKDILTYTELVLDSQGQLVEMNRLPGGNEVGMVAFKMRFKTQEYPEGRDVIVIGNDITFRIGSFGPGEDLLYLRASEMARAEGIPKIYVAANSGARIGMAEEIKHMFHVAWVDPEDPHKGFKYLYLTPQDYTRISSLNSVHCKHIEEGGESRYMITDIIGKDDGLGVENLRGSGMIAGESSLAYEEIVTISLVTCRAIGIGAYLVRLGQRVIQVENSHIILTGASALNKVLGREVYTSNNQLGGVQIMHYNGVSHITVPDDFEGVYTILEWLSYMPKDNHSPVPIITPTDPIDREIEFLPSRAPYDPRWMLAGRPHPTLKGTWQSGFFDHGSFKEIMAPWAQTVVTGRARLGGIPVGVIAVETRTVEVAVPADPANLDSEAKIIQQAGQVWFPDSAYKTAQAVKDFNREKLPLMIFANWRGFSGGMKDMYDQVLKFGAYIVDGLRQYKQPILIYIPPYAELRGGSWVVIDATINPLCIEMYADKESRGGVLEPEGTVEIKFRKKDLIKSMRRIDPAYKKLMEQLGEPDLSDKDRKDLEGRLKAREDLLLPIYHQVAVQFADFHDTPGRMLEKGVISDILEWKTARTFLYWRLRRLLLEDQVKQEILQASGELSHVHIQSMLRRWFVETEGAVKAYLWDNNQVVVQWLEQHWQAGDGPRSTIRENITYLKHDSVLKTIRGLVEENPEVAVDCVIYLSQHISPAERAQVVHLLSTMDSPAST

Row | Structure (SMILES) | IC50 (Acetyl-CoA carboxylase 1) [nM] | CLint scaled [1] [mL/min/kg] | IC50 (Acetyl-CoA carboxylase 2) [nM] | clearance [2] [mL/min/kg] | IC50 [3] [nM]
1 | Cc1cc(C(=O)N2CCC3(CC2)CN(C(=O)O[C@H](C)c2ccccc2)C3)cc2cn[nH]c12 | 310 | 64 | 880 |  | 
2 | Cc1cc(C(=O)N2CCC3(CCN(C(=O)OC(C)(C)C)C3)CC2C)cc2cn[nH]c12 (stereo in doubt; 3.3.1) | 7900 |  | > 14000 |  | 
3 | Cc1cc(C(=O)N2CCC3(CC2)CN(C(=O)OCC(C)(C)C)C3)cc2cn[nH]c12 | 310 |  | 1400 |  | 
4 | Cc1cc(C(=O)N2CCC3(CC2C)CN(C(=O)OC(C)(C)C)C3)cc2cn[nH]c12 (stereo not drawn) | 4800 | 46 | 9200 |  | 
5 | Cc1cc(C(=O)N2CCC3(CCN(C(=O)OC(C)(C)C)C3)CC2)cc2cn[nH]c12 | 510 | 32 | 1000 |  | 
6 | Cc1cc(C(=O)N2CCC3(CCN(C(=O)OC(C)(C)C)C3)C2)cc2cn[nH]c12 (stereo not drawn) | 11000 |  | 20000 |  | 
7 | Cc1cc(C(=O)N2CC3(CCN(C(=O)OC(C)(C)C)CC3)C2)cc2cn[nH]c12 | 810 | 19 | 2400 |  | 
8 | Cc1cc(C(=O)N2CCC3(CCN(C(=O)OC(C)(C)C)C3)CC2C)cc2cn[nH]c12 (stereo in doubt; 3.3.2) | 9300 |  | > 17000 |  | 
9 | Cc1cc(C(=O)N2CCC3(CC2)CN(C(=O)OC(C)(C)C)C3C)cc2cn[nH]c12 (stereo not drawn) | 240 | 60 | 900 |  | 
10 | Cc1cc(C(=O)N2CCC3(CC2C)C[C@@H](C)N(C(=O)OCC(C)(C)C)C3)cc2cn[nH]c12 (stereo partly drawn) | 140 |  | 1100 |  | 
11 | Cc1cc(C(=O)N2CC3(CN(C(=O)OC(C)(C)C)C3)C2)cc2cn[nH]c12 | > 30000 |  | > 10000 |  | 
12 | Cc1cc(C(=O)N2CCC3(CCN(C(=O)OC(C)(C)C)CC3)C2)cc2cn[nH]c12 | 1000 | 94 | 2200 |  | 
13 | Cc1cc(C(=O)N2CCC3(CC2)CCN(C(=O)OCC(C)(C)C)[C@@H]3C)cc2cn[nH]c12 | 26 |  | 200 |  | 
14 | Cc1cc(C(=O)N2CCC3(CCN(C(=O)OCC(C)(C)C)C3)CC2)cc2cn[nH]c12 | 220 | 117 | 800 |  | 
15 | Cc1cc(C(=O)N2CCC3(CC2)CCN(C(=O)OCC(C)(C)C)[C@H]3C)cc2cn[nH]c12 | 16 | 106 | 110 | 52 | 300
16 | CC(C)(C)n1cc2c(n1)C(=O)CC1(CCN(C(=O)c3ccc4[nH]ncc4c3)CC1)O2 |  |  |  |  | 93
17 | Cc1cc(C(=O)N2CCC3(CCN(C(=O)OC(C)C)C3)CC2)cc2cn[nH]c12 | 1600 |  | 4500 |  | 
18 | Cc1cc(C(=O)N2CCC3(CC2)CN(C(=O)OC(C)(C)C)C3)cc2cn[nH]c12 | 450 | < 9 | 800 |  | 
19 | Cc1cc(C(=O)N2CCC3(CCN(C(=O)OCc4ccccc4)C3)CC2)cc2cn[nH]c12 | 2100 |  | 4000 |  | 
20 | Cc1cc(C(=O)N2CCC3(CC2C)C[C@H](C)N(C(=O)OCC(C)(C)C)C3)cc2cn[nH]c12 (stereo partly drawn) | 2200 |  | 5500 |  | 
21 | Cc1cc(C(=O)N2CCC3(CCN(C(=O)O[C@H](C)c4ccccc4)C3)CC2)cc2cn[nH]c12 | 65 | 117 | 260 |  | 
